Tests used:
Format in all cases: in vivo
Conditions in all cases: solo application, 20 DAT
Setaria viridis = test: Greenhouse pre-emergence herbicidal activity, SETVI
Description: (§1) The test plants have been seeded, separately for each species, in plastic containers in sandy loamy soil containing 5% of organic matter.
(§2) The containers were irrigated gently to promote germination and growth and subsequently covered with transparent plastic hoods until the plants had rooted.
(§3) The plants have been cultivated due to their individual requirements at 10-25° C. and 20-35° C. The plants were irrigated due to their necessity.
(§4) The racemic mixture (±)-2-exo-(2-Methylbenzyloxy)-1-methyl-4-isopropyl-7-oxabicyclo[2.2.1]heptane was used as herbicide A and formulated as emulsifiable concentrates with an active ingredient concentration of 50 g/l, 100 g/l or 750 g/l respectively.
(§5) Quinmerac (herbicide B.2) was used as a wettable powder (WP) formulation having an active ingredient concentration of 50%.
(§6) In the following experiments, the herbicidal activity for the individual herbicidal compositions (solo and mixture applications) was assessed 20 days after treatment (DAT).
(§7) The evaluation for the damage on undesired weeds caused by the chemical compositions was carried out using a scale from 0 to 100%, compared to the untreated control plants. Here, 0 means no damage and 100 means complete destruction of the plants.
(§8) The plants used in the greenhouse experiments belonged to the following species:
(§9) where X=effect in percent using herbicide A at an application rate a; • Y=effect in percent using herbicide B at application rate b; • E=expected effect (in %) of herbicide A+ herbicide B at application rates a+b.
(§10) The value E corresponds to the effect (plant damage or injury) which is to be expected if the activity of the individual compounds is additive. If the observed effect is higher than the value E calculated according to the Colby equation, a synergistic effect is present.
(§11) Table 1 below relates to the herbicidal activity, in greenhouse trials, of the individual actives and the combinations applied at different rates and ratios, in pre-emergence application at 20 days after treatment (DAT).

Stellaria media = test: Greenhouse pre-emergence herbicidal activity, STEME
Description: as §1, §2, §3, §4, §5, §6, §7, §8, §9, §10, §11

Digitaria sanguinalis = test: Greenhouse pre-emergence herbicidal activity, DIGSA
Description: as §1, §2, §3, §4, §5, §6, §7, §8, §9, §10, §11

Polygonum convolvulus = test: Greenhouse pre-emergence herbicidal activity, POLCO
Description: as §1, §2, §3, §4, §5, §6, §7, §8, §9, §10, §11

Lolium multiflorum = test: Greenhouse pre-emergence herbicidal activity, LOLMU
Description: as §1, §2, §3, §4, §5, §6, §7, §8, §9, §10, §11

Geranium dissectum = test: Greenhouse pre-emergence herbicidal activity, GERDI
Description: as §1, §2, §3, §4, §5, §6, §7, §8, §9, §10, §11

Anthemis arvensis = test: Greenhouse pre-emergence herbicidal activity, ANTAR
Description: as §1, §2, §3, §4, §5
(§12) In the following experiments, the herbicidal activity for the individual herbicidal compositions (solo and mixture applications) was assessed 20 days after treatment (DAT). […]
(§13) The value E corresponds to the effect (plant damage or injury) which is to be expected if the activity of the individual compounds is additive. If the observed effect is higher than the value E calculated according to the Colby equation, a synergistic effect is present. […]

Alopecurus myosuroides = test: Greenhouse pre-emergence herbicidal activity, ALOMY
Description: as §1, §2, §3, §4, §5, §12, §13

Sorghum halepense = test: Greenhouse pre-emergence herbicidal activity, SORHA
Description: as §1, §2, §3, §4, §5, §6, §7, §8, §9, §10, §11

Abutilon theophrasti = test: Greenhouse pre-emergence herbicidal activity, ABUTH
Description: as §1, §2, §3, §4, §5, §6, §7, §8, §9, §10, §11

Amaranthus retroflexus = test: Greenhouse pre-emergence herbicidal activity, AMARE
Description: as §1, §2, §3, §4, §5, §12, §13

Papaver rhoeas = test: Greenhouse pre-emergence herbicidal activity, PAPRH
Description: as §1, §2, §3, §4, §5, §12, §13

Echinochloa crus-galli = test: Greenhouse pre-emergence herbicidal activity, ECHCG
Description: as §1, §2, §3, §4, §5, §6, §7, §8, §9, §10, §11

Avena fatua = test: Greenhouse pre-emergence herbicidal activity, AVEFA
Description: as §1, §2, §3, §4, §5, §6, §7, §8, §9, §10, §11

Measured: herbicidal activity

Cc1cnc2c(C(=O)O)c(Cl)ccc2c1 [quinmerac, 7-chloro-3-methylquinoline-8-carboxylic acid]
0%: Setaria viridis; 31.25 g ai/ha | Setaria viridis; 62.5 g ai/ha | Stellaria media; 50 g ai/ha | Stellaria media; 100 g ai/ha | Digitaria sanguinalis; 31.25 g ai/ha | Digitaria sanguinalis; 62.5 g ai/ha | Digitaria sanguinalis; 125 g ai/ha | Digitaria sanguinalis; 250 g ai/ha | Polygonum convolvulus; 100 g ai/ha | Polygonum convolvulus; 200 g ai/ha | Lolium multiflorum; 250 g ai/ha | Geranium dissectum; 31.25 g ai/ha | Geranium dissectum; 62.5 g ai/ha | Geranium dissectum; 200 g ai/ha | Anthemis arvensis; 250 g ai/ha | Alopecurus myosuroides; 250 g ai/ha | Sorghum halepense; 62.5 g ai/ha | Abutilon theophrasti; 50 g ai/ha | Abutilon theophrasti; 200 g ai/ha | Amaranthus retroflexus; 250 g ai/ha | Papaver rhoeas; 31.25 g ai/ha | Echinochloa crus-galli; 31.25 g ai/ha | Echinochloa crus-galli; 62.5 g ai/ha | Avena fatua; 25 g ai/ha | Avena fatua; 50 g ai/ha | Avena fatua; 125 g ai/ha | Avena fatua; 250 g ai/ha
25%: Lolium multiflorum; 200 g ai/ha | Sorghum halepense; 200 g ai/ha
50%: Geranium dissectum; 250 g ai/ha

(±)-2-exo-(2-Methylbenzyloxy)-1-methyl-4-isopropyl-7-oxabicyclo[2.2.1]heptane [herbicide A]
40%: Stellaria media; 125 g ai/ha
95%: Setaria viridis; 25 g ai/ha | Geranium dissectum; 100 g ai/ha | Alopecurus myosuroides; 100 g ai/ha | Sorghum halepense; 250 g ai/ha | Echinochloa crus-galli; 12.5 g ai/ha
98%: Lolium multiflorum; 250 g ai/ha | Sorghum halepense; 25 g ai/ha | Echinochloa crus-galli; 25 g ai/ha
85%: Geranium dissectum; 250 g ai/ha
65%: Abutilon theophrasti; 250 g ai/ha
0%: Stellaria media; 62.5 g ai/ha | Digitaria sanguinalis; 12.5 g ai/ha | Digitaria sanguinalis; 25 g ai/ha | Polygonum convolvulus; 125 g ai/ha | Polygonum convolvulus; 250 g ai/ha | Geranium dissectum; 12.5 g ai/ha | Geranium dissectum; 25 g ai/ha | Anthemis arvensis; 100 g ai/ha | Avena fatua; 31.25 g ai/ha | Avena fatua; 50 g ai/ha
10%: Avena fatua; 100 g ai/ha
90%: Setaria viridis; 12.5 g ai/ha | Digitaria sanguinalis; 100 g ai/ha
70%: Digitaria sanguinalis; 50 g ai/ha | Lolium multiflorum; 100 g ai/ha | Papaver rhoeas; 12.5 g ai/ha
25%: Abutilon theophrasti; 62.5 g ai/ha
30%: Amaranthus retroflexus; 100 g ai/ha | Avena fatua; 62.5 g ai/ha
